Results: patent US20030219491A1, “Compositions for inhibiting tumor growth and methods thereof” (priority 2002, published 2003)

Legend:
[1] = target: polyhemoglobin-tyrosinase complex (bovine hemoglobin crosslinked with mushroom tyrosinase) (Bos taurus, UniProt P01966+P02070); settings: crosslink time 24 h; versus pure bovine hemoglobin in free form
[2] = system: tyrosinase from mushroom, free (1020 U/3 ml); experiment: Vmax and Km of free tyrosinase; format: biochemical; settings: substrate tyrosine
From the text: (§1) L-tyrosine (98% TLC), hemoglobin from bovine (lyophilized powder), hemoglobin assay kit, tyrosinase from mushroom (3400 U/mg manufacturer's stated activity) were purchased from Sigma-Aldrich (Oakville, Canada). Collodion was obtained from Fisher Scientific (Nepean, Canada). Glutaraldehyde (25%) was obtained from Polyscienes (Warrington, Pa.). Purified bovine hemoglobin was purchased from Biopure Corporation (Boston, Mass.). All other reagents were of analytical grade.
This is to characterize the enzyme kinetics of the preparation and comparing this encapsulated tyrosinse preparation to free tyrosinase.

[3] = system: tyrosinase from mushroom, encapsulated (1020 U/3 ml); experiment: Apparent Vmax and apparent Km of encapsulated tyrosinase; format: biochemical; settings: substrate tyrosine
From the text: as §1
One gram hemoglobin and 200 mg […] was dissolved in 10 ml double distilled deionized water. Stir with a metal rod until everything is dissolved. Gravity filter the solution through a Waterman #42 filter into a Erlenmeyer flask. Take 2.5 ml of this 10 g/dl hemoglobin solution and was encapsulated within spherical, ultrathin, cellulose nitrate membrane. Without tyrosinase loaded microcapsules were administrated orally to control group. For tyrosinase loaded microencapsules, […] of 3400 U/mg tyrosinase was dissolved in 2.5 ml 10% hemoglobin solution, then followed the methods described above to immobilize tyrosinase in collodion membrane microcapsules. Microcapsules prepared as a 50% suspension for later feeding. […]
Next, the apparent Vmax and apparent Km value for encapsulated tyrosinase (1020 U/3 ml) were studied. The leakage of encapsulated tyrosinase is also measured.

polyhemoglobin-tyrosinase complex (bovine hemoglobin crosslinked with mushroom tyrosinase), sequence (P01966 whole entry): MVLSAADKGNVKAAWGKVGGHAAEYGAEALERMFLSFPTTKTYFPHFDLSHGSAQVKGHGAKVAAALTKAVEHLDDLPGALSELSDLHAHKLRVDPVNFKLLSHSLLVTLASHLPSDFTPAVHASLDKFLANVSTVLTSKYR
polyhemoglobin-tyrosinase complex (bovine hemoglobin crosslinked with mushroom tyrosinase), sequence (P02070 whole entry): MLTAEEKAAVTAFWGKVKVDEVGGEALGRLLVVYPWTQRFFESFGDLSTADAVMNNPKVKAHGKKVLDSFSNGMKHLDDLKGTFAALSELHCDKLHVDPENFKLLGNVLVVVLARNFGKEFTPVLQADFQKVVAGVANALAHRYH

| Structure (SMILES) | P50 (oxygen dissociation), difference from free hemoglobin [1] | Vmax [2] | Apparent Vmax [3] | Km [3] |
| --- | --- | --- | --- | --- |
| O=O [oxygen] | no significant difference | – | – | – |
| N[C@@H](Cc1ccc(O)cc1)C(=O)O [tyrosine, L-tyrosine] | – | 114.94 mg/dl · min | 49.02 mg/dl · min | 465 µM |
